Laboratory results taken from patent US20210137858A1, “COMBINATION FORMULATION CONTAINING COLCHICINE FOR TREATMENT OR ENHANCING THE THERAPY OF LIVER DISEASE” (priority 2019, published 2021).

What was measured:
Type in all cases: in vivo, Wistar Rat
liver fibrosis by CCl4 = assay: Hydroxyproline assay, CCl4 liver fibrosis, colchicine dose (Examples 1-2); conditions: for Hydroxyproline: CCl4 0.4 g/kg rats
Method: (§1) Male Wistar Rat [about 150 g, 4 to 5-week old]
An administration plan of carbon tetrachloride (CCl4) and colchicine used in this experiment is as follows:
(1) Carbon tetrachloride: Intraperitoneal administration of 0.4 g/kg·bw, administered 3 times per week for 10 weeks • (2) Colchicine: Oral administration of 10, 50, 100 μg/kg·bw, once daily for 10 weeks
(§2) For this experiment, each group was classified as follows, and one group was used by 12 rats.
(3) CCl4-administered group [0.4 g/kg]
(4) CCl4+Colchicine [10 μg/kg]
(5) CCl4+Colchicine [50 μg/kg]
(6) CCl4+Colchicine [100 μg/kg]
The following items were measured to confirm the enhancement of the efficacy for treating liver fibrosis. Fibrosis index items were measured at 10 weeks.
(1) Fibrosis index item: hydroxyproline
Hydroxyproline assay was performed for each group to confirm the levels of […] accumulation in the liver.

[1] = test system: liver damage caused by CCl4; assay: Blood and serum levels (albumin, ALP, ALT, AST, total protein) in CCl4-administered rats (Examples 3, 4-1 to 4-3)
Method: as §1
(§3) An administration plan of carbon tetrachloride (CCl4), silymarin, colchicine, and biphenyldimethyl dicarboxylate (DDB) used in this experiment is as follows:
(§4) (1) Carbon tetrachloride: Intraperitoneal administration of 0.4 g/kg·bw, administered 3 times per week for 10 weeks
(§5) (2) Silymarin: Oral administration of 10, 30, 50 mg/kg·bw, administered once a day for 10 weeks
(§6) (3) Colchicine: Oral administration of 10 μg/kg·bw, administered once a day for 10 weeks
(§7) (4) Biphenyldimethyl dicarboxylate (DDB): Oral administration of 10, 20, 25 mg/kg·bw, administered once a day for 10 weeks
(§8) (5) UDCA: Oral administration of 30 mg/kg·bw, administered once a day for 10 weeks
as §2
(§9) (4) CCl4+DDB [25 mg/kg] administered group
(§10) (5) CCl4+Colchicine [10 μg/kg]+DDB [25 mg/kg] administered group
(§11) (6) CCl4+Colchicine [10 μg/kg]+DDB [20 mg/kg] administered group
(§12) (7) CCl4+Colchicine [10 μg/kg]+DDB [10 mg/kg] administered group
(§13) (8) CCl4+Silymarin [50 mg/kg] administered group
(§14) (9) CCl4+Colchicine [10 μg/kg]+Silymarin [50 mg/kg] administered group
(§15) (10) CCl4+Colchicine [10 μg/kg]+Silymarin [30 mg/kg] administered group
(§16) (11) CCl4+Colchicine [10 μg/kg]+Silymarin [10 mg/kg] administered group
(12) CCl4+Colchicine [10 μg/kg]+UDCA [30 mg/kg] administered group
Serum items were measured at 4 weeks and 10 weeks, and histological items were measured at 10 weeks.
(1) Serum enzyme items: Albumin, total protein concentration, ALT, AST, ALP, etc.
(§17) At this time, the dose of colchicine administered was all the same at 10 μg/kg.
as §17, §17

[2] = test system: fibrin accumulation in the liver (CCl4); conditions: DDB 25 mg/kg alone; CCl4 0.4 g/kg rats
Method: as §1, §3, §4, §5, §6, §7, §8, §2, §9, §10, §11, §12, §13, §14, §15, §16
(12) CCl4+Colchicine [10 μg/kg]+UDCA [30 mg/kg] administered group […]

[3] = test system: liver tissue of CCl4-administered rats; assay: Liver histopathological examination (H&E staining) (Example 4-5); parameters: key to Fatty necrosis / Ballooning degeneration / Fatty change / Fibrosis: 0 point for no disease (NAD); 1 point for mild symptoms; 2 points for moderate symptoms; 3 points for severe symptoms; conditions: DDB [25 mg] alone, 10 weeks
Method: as §1, §3, §4, §2
The following items were measured to confirm the enhancement of the efficacy for the treatment of liver disease (hepatitis, liver fibrosis, etc.). Serum items were measured at 4 weeks and 10 weeks, and histological items were measured at 10 weeks.
(2) Liver tissue Histology: H&E staining
In each group, when the pathological characteristics for fatty necrosis, ballooning, fatty change, and fibrosis may be identified according to severity of disease, it was evaluated by assigning 0 point for no disease (NAD), 1 point for mild symptoms, 2 points for moderate symptoms, and 3 points for severe symptoms.

[4] = DDB 25 mg/kg alone, CCl4 rats, serum

Row | SMILES | Hydroxyproline (liver fibrosis by CCl4; colchicine 10 μg/kg oral once daily 10 weeks) | Hydroxyproline (liver fibrosis by CCl4; colchicine 50 μg/kg oral once daily 10 weeks) | Hydroxyproline (liver fibrosis by CCl4; colchicine 100 μg/kg oral once daily 10 weeks) | fibrin (hydroxyproline assay), in words (liver fibrosis by CCl4; colchicine-administered group vs CCl4, Table 1) | ALP [1, 4] [U/L] | ALT [1, 4] [U/L] | AST [1, 4] [U/L] | Albumin [1, 4] [g/dL] | Total protein [1, 4] [g/dL] | ALP (Alkaline phosphatase) level, in words ([1]; vs CCl4 administration, Tables 2 and 4) | Albumin level, in words ([1]; vs level reduced by CCl4, Tables 2-4) | Total protein, in words ([1]; vs value reduced by CCl4, Tables 2-4) | Hydroxyproline [2] | Ballooning degeneration [3] | Fatty change [3] | Fatty necrosis [3] | Fibrosis [3] | Total Score [3]
1 | COc1cc2c(c(OC)c1OC)-c1ccc(OC)c(=O)cc1[C@@H](NC(C)=O)CC2 [Colchicine, colchicine] | 320.12 ± 13.32 μg/g of liver | 313.33 ± 12.50 μg/g of liver | 302.25 ± 10.25 μg/g of liver | significant reduction effect of fibrin |  |  |  |  |  |  |  |  |  |  |  |  |  | 
2 | COC(=O)c1cc(OC)c2c(c1-c1c(C(=O)OC)cc(OC)c3c1OCO3)OCO2 [DDB, biphenyldimethyl dicarboxylate] |  |  |  |  | 1428.90 ± 681.53 | 1543.09 ± 408.03 | 1642.24 ± 764.93 | 2.13 ± 0.09 | 5.35 ± 0.28 | the level was increased | tended to be recovered | tended to be recovered | 317.74 ± 9.24 μg/g of liver | 3 | 1 | 1 | 2 | 7
